Laboratory results as given in US12636366B2, “Ruthenium (II) complexes and conjugates thereof for use as photosensitizer agent in photodynamic therapy” (Paris Sciences et Lettres, priority 2019, dated 2026).
Read-outs that look alike come from different tables or passages of the source.

Tests used:
[1] = Emission of the complexes in CH3CN upon excitation at 355 nm; format: physicochemical; settings: room temperature
Procedure: The absorption of the samples in cuvettes has been measured with a Lambda 800 UV/VIS Spectrometer (PerkinElmer Instruments) and in 96 well plates with a SpectraMax M2 Spectrometer (Molecular Devices). The emission was measured by irradiation of the sample in fluorescence quartz cuvettes (width 1 cm) using a NT342B Nd-YAG pumped optical parametric oscillator (Ekspla) at 355 nm. Luminescence was focused and collected at right angle to the excitation pathway and directed to a Princeton Instruments Acton SP-2300i monochromator equipped with 1200 g/mm grating blazed at 500 nm. As a detector a XPI-Max 4 CCD camera (Princeton Instruments) has been used.
Upon excitation at 355 nm, the emission of the complexes in CH3CN was determined. The maximum of the emission signal was measured between 600-710 nm (Table 1). […] This leads for all investigated complexes to a large Stokes shift implying minimal inference between excitation and luminescence.

[2] = Singlet oxygen measurement, direct evaluation (1O2 luminescence at 1270 nm); format: physicochemical; settings: direct method, excitation at 450 nm; for Singlet oxygen quantum yield Φ(1O2), CH3CN Direct / Singlet oxygen quantum yield Φ(1O2), D2O Direct: average of three, +-10%
Procedure: The samples were prepared in an air saturated CH3CN or D2O solution with an absorbance of 0.2 at 450 nm. This solution was irradiated in fluorescence quartz cuvettes (width 1 cm) using a mounted M450LP1 LED (Thorlabs) whose irradiation, centered at 450 nm, has been focused with aspheric condenser lenses. The intensity of the irradiation has been varied using a T-Cube LED Driver (Thorlabs) and measured with an optical power and energy meter. The emission signal was focused and collected at right angle to the excitation pathway and directed to a Princeton Instruments Acton SP-2300i monochromator equipped with 600 g/mm grating blazed at 1200 nm. A longpass glass filter was placed in front of the monochromator entrance slit to cut off light at wavelengths shorter than 850 nm. The slits for detection were fully open. As a detector an EO-817L IR-sensitive liquid nitrogen cooled germanium diode detector (North Coast Scientific Corp.) has been used. The singlet oxygen luminesce at 1270 nm was measured by recording spectra from 1100 to 1400 nm. For the data analysis, the singlet oxygen luminescence peaks at different irradiation intensities were integrated. The resulting areas were plotted against the percentage of the irradiation intensity and the slope of the linear regression calculated. The absorbance of the sample was corrected with an absorbance correction factor. As reference for the measurement in an CH3CN solution phenalenone (Φphenaleone=0.95)^33 and for the measurement in a D2O solution [Ru(bipy)3]Cl2 (ΦRu(bipy)3C12=0.22)^31 was used and the singlet oxygen quantum yields were calculated using the following formula: […]
Additionally, the DFT calculations were able to characterize the lowest energy absorption band as a MLCT transition with a triplet state. With this in hand, a quantitative evaluation of singlet oxygen (^1O2) was performed to assess the potential of the PSs in PDT, by two methods: 1) direct by measurement of the luminescence of ^1O2, 2) indirect by measurement of the variation in absorbance of a reporter molecule, as described above. In the first method, the efficiency of the production of ^1O2 was assessed by measuring its phosphorescence at 1270 nm. Worthy of note, the possibility of detection in this experiment is affected by its environment as well as the used setup. With the setup used in this study, we could only detect Φ(^1O2) larger than 0.20 based on a low peak-to-noise ratio. In the second method (indirect method), ^1O2 is reacting with imidazole (in CH3CN) and histidine (in PBS buffer) to a trans-annular peroxide adduct. This can further quench the absorbance of the reporter molecule p-nitrosodimethyl aniline (RNO), which has been monitored by UV/VIS spectroscopy. In both methods, the ^1O2 production has been compared with a reference molecule, namely a solution of phenalenone in CH3CN (Φ(^1O2)phenaleone=0.95)^33 and a solution of [Ru(bipy)3]Cl2 in water Φ(^1O2)Ru(bipy)3Cl2=0.22)^31. […] In comparison, the values changed drastically in an aqueous solution. […] They have untypically low Φ(^1O2) values in CH3CN (0.22-0.35) for Ru(II) polypyridyl complexes. Subsequently, the ^1O2 production was also quite low in an aqueous environment.

[3] = test system: human glioblastoma cells (U373); assay: Dark and light cytotoxicity, resazurin cell viability assay, U373; format: cell-based; settings: for PI (IC50 in the dark/IC50 upon light irradiation): U373, 480 nm
Procedure: (§1) HeLa and CT-26 cell lines were cultured in DMEM media (Gibco, Life Technologies, USA) supplemented with 10% of fetal calf serum (Gibco). U87 and U373 cell lines were cultured in MEM media with addition of 1% of MEM NEAA (non-essential aminoacids) (Gibco) and 10% of fetal calf serum. RPE-1 cells were cultured in DMEM/F-12 (Gibco) supplemented with 10% of fetal calf serum. RPE-1 stable cells lines were cultured as RPE-1 cells with addition of geneticin (0.5 mg/ml) (Gibco). All cell lines were complemented with 100 U/ml penicillin-streptomycin mixture (Gibco), and maintained in humidified atmosphere at 37° C. and 5% of CO2.
(§2) Dark and light cytotoxicity of the Ru(II) complexes was assessed by fluorometric cell viability assay using resazurin (ACROS Organics). For dark and light cytotoxicity, cells were seeded in triplicates in 96 well plates at a density of 4000 cells per well in 100 μl, 24 h prior to treatment. The medium was then replaced with increasing concentration of the tested complexes and cells were incubated for 4 h. Medium was then replaced for fresh complete medium. Cells used for light cytotoxicity experiment were exposed to: 480 nm light for 10 min, 510 nm for 40 min, 540 for 60 min or 595 nm for 120 min in a 96-well plate using a LUMOS-BIO photoreactor (Atlas Photonics). Each well was individually illuminated with a LED at constant current. After irradiation cells were kept for another 44 h in the incubator and the medium was replaced by fresh complete medium containing resazurin (0.2 mg ml^−1 final concentration). After 4 h incubation at 37° C., the fluorescence signal of the resorufin product was read by SpectraMax M5 microplate reader (ex: 540 nm em: 590 nm). IC50 values were calculated using GraphPad Prism software.
(§3) The potential of the complexes to act as PDT PSs was determined on mouse colon carcinoma cells (CT-26), human glioblastoma cells (U87 and U373), human cervical carcinoma cells (HeLa) as well as non-cancerous retina pigmented epithelial cell line (RPE-1) according to the method described above. […] Ideally, a PDT PS should be non-toxic in the dark and highly toxic upon light activation. […] The toxicity of the compounds upon light irradiation (480 nm, 10 min, 3.21 J cm^−2) was then investigated.

[4] = test system: CT-26 mouse colon carcinoma cells; assay: Dark and light cytotoxicity, resazurin cell viability assay, CT-26; format: cell-based; settings: for PI (IC50 in the dark/IC50 upon light irradiation): CT-26, 480 nm
Procedure: as §1, §2, §3

[5] = test system: human glioblastoma cells (U87); assay: Dark and light cytotoxicity, resazurin cell viability assay, U87; format: cell-based; settings: for PI (IC50 in the dark/IC50 upon light irradiation): U87, 480 nm
Procedure: as §1, §2, §3

[6] = U373, dark, read-out: IC50 Dark
[7] = U373, light 480 nm, 10 min, 3.21 J cm^−2, read-out: IC50 Light
[8] = CT-26, dark, 4 h incubation, read-out: IC50 Dark
[9] = CT-26, light 480 nm, 10 min, 3.21 J cm^−2, read-out: IC50 Light
[10] = U87, light 480 nm, 10 min, 3.21 J cm^−2, read-out: IC50 Light

Row | Molecule | Emission λem [1] | Singlet oxygen quantum yield Φ(1O2), CH3CN Direct [2] | Singlet oxygen quantum yield Φ(1O2), D2O Direct [2] | IC50 [3, 6] | IC50 [3, 7] | IC50 [4, 8] | IC50 [4, 9] | PI (IC50 in the dark/IC50 upon light irradiation) ([5]; 10 min) | IC50 ([5]; U87, dark, read-out: IC50 Dark) | IC50 [5, 10] | PI (IC50 in the dark/IC50 upon light irradiation) ([4]; 10 min) | Singlet oxygen quantum yield Φ(1O2), D2O Direct (not determinable) [2] | other results
1 | F[P-](F)(F)(F)(F)F.F[P-](F)(F)(F)(F)F.[Ru+2].c1ccc(-c2ccccn2)nc1.c1cnc2c(c1)ccc1cccnc12.c1cnc2c(c1)ccc1cccnc12 [Compound 1, (Bipyridine)bis(1,10-phenanthroline)ruthenium(II)hexafluorophosphate] | 600 nm | 0.57 | 0.27 | > 100 µM | > 100 µM | > 100 µM | > 100 µM | >1 | > 100 µM | 93.7 ± 2.5 µM | – | – | –
2 | Cc1ccnc(-c2cc(C)ccn2)c1.F[P-](F)(F)(F)(F)F.F[P-](F)(F)(F)(F)F.[Ru].c1cnc2c(c1)ccc1cccnc12.c1cnc2c(c1)ccc1cccnc12 [Compound 2, (4,4′-Dimethyl-2,2′-bipyridine)bis(1,10-phenanthroline)ruthenium(II)hexafluorophosphate] | 606 nm | 0.69 | 0.31 | > 100 µM | > 100 µM | > 100 µM | 91.2 ± 7.54 µM | >1 | > 100 µM | 71.4 ± 7.54 µM | >1 | – | –
3 | (2,2′-bipyridine-4,4′-carboxamide)bis(1,10-phenanthroline)ruthenium(II) hexafluorophosphate [Compound 4] | 654 nm | 0.62 | 0.25 | > 100 µM | > 100 µM | > 100 µM | 72.6 ± 7.44 µM | – | > 100 µM | > 100 µM | >1 | – | –
4 | (4,4′-Dibromo-2,2′-bipyridine)bis(1,10-phenanthroline)ruthenium(II) hexafluorophosphate [Compound 3] | 645 nm | 0.55 | not detectable | > 100 µM | > 100 µM | > 100 µM | 85.7 ± 9.47 µM | – | > 100 µM | > 100 µM | >1 | n.d. (n.d. = not determinable, Φ(^1O2) < 0.20) | –
5 | (4,4′-Dimethyl-2,2′-bipyridine)bis(4,7-diphenyl-1,10-phenanthroline)ruthenium(II) hexafluorophosphate [Compound 6] | 623 nm | 0.61 | not detectable | 23.4 ± 0.53 µM | 1.89 ± 0.07 µM | 3.09 ± 0.3 µM | 0.19 ± 0.04 µM | 42.5 | 28.4 ± 1.97 µM | 0.67 ± 0.13 µM | 16.3 | n.d. (n.d. = not determinable, Φ(^1O2) < 0.20) | PI (IC50 in the dark/IC50 upon light irradiation) ([3]; 10 min): 12.37; PI ([4]; CT-26, 510 nm 40 min): 20.6; PI ([4]; CT-26, 540 nm 60 min): 9.6; PI ([4]; CT-26, 595 nm 2 h): 23.47; IC50 ([4]; CT-26, dark control of the 510 nm 40 min experiment, read-out: IC50 Dark): 4.18 ± 0.56 µM; IC50 ([4]; CT-26, dark control of the 540 nm 60 min experiment, read-out: IC50 Dark): 3.27 ± 0.64 µM; IC50 ([4]; CT-26, dark control of the 595 nm 2 h experiment, 2 h at 37° C. in non-CO2 atmosphere, read-out: IC50 Dark): 1.408 ± 0.003 µM; IC50 ([4]; CT-26, light 540 nm 60 min, read-out: IC50 Light): 0.34 ± 0.005 µM; IC50 ([4]; CT-26, light 595 nm 2 h, no CO2 atmosphere during irradiation, read-out: IC50 Light): 0.06 ± 0.004 µM
6 | ((E,E′)-4,4′-Bis(N,N′-dimethylaminovinyl)-2,2′-bipyridine)bis(1,10-phenanthroline)ruthenium(II) hexafluorophosphate [Compound 5] | 703 nm | 0.24 | – | > 100 µM | > 100 µM | > 100 µM | 52.5 ± 6.04 µM | – | > 100 µM | > 100 µM | >2 | n.d. (n.d. = not determinable, Φ(^1O2) < 0.20) | –
7 | ((E,E′)-4,4′-Bis(N,N′-dimethylaminovinyl)-2,2′-bipyridine)bis(4,7-diphenyl-1,10-phenanthroline)ruthenium(II) hexafluorophosphate [Compound 7] | 694 nm | 0.22 | – | > 100 µM | 14.8 ± 0.81 µM | 94.5 ± 7.38 µM | 6.62 ± 0.7 µM | >12.7 | > 100 µM | 7.9 ± 0.54 µM | 14.3 | n.d. (n.d. = not determinable, Φ(^1O2) < 0.20) | PI (IC50 in the dark/IC50 upon light irradiation) ([3]; 10 min): >6.7
